pIC50: −log10 of the molar value. Where two headings read alike, the source gives them in different places.
Experiments:
MDA-MB-231 cells = assay: Anti-proliferation test (CCK8), singly and combined with TMZ; format: cell-based; conditions: for pIC50: 8 days; for PF50: PF50=[IC50 of the tested compound]/[IC50 at fixed TMZ concentration]
Method: (§1) MDA-MB-436 and MDA-MB-231 cells were seeded in a 96-well plate at a density of 500 and 2000 cell per well, respectively, and cultured overnight. The medium was RPMI 1640 containing 10% (v/v) FBS and 1% (v/v) penicillin-streptomycin. They were treated for 8 days after the compound to be tested was added. Cell viability was measured by CCK8 kit. Specifically, 10 µL CCK8 reagent was added to each well and incubated in a 5% CO2 incubator at 37° C. for 3 hours. After shaking for 10 minutes, the light absorbance (OD value) was measured with a Flexstation III (Molecular Device) at 450 nm.
(§2) For the test of compound combinations (in combination with DNA damage drugs), the PF50 value was used to calculate the synergistic effect of the drug. PF50=[IC50 of the tested compound]/[IC50 of the compound at a fixed DNA damage drug concentration]. Temozolomide (TMZ) was used as DNA damage drug in this study.

MDA-MB-436 cells = assay: as above; format: cell-based; conditions: for pIC50: 8 days; for PF50: PF50=[IC50 of the tested compound]/[IC50 at fixed TMZ concentration]
Method: as §1, §2

[1] = Stability test for Crystal type A in different solvents; format: physicochemical; conditions: for Results (crystalline state by XRPD): 3 days
Excerpt: After being stirred for 3 days, the samples were centrifuged and the solid in all samples were collected. XRPD was used to determine the crystalline state.

[2] = Solid stability test for Crystal type A under high temperature, high humidity and strong illumination; format: physicochemical
Method: The sample placed at 60° C. and 92.5% relative humidity was sealed with aluminum foil at the vial mouth, and the aluminum foil was pricked to ensure that the sample was fully exposed to the ambient air; the sample placed under strong illumination (5Klux) was sealed with a screw cap. The samples placed under different conditions were sampled and tested on the 10th day. The test results were compared with the initial test results on the 0th day.

[3] = Homo sapiens, MDA-MB-231, 192 h, MDA-MB-231, combined with 1uM TMZ, average, read-out: IC50_Avg
[4] = Homo sapiens, MDA-MB-231, 192 h, MDA-MB-231, combined with 1uM TMZ, run N=1, read-out: IC50_N = 1
[5] = Homo sapiens, MDA-MB-231, 192 h, MDA-MB-231, combined with 1uM TMZ, run N=2, read-out: IC50_N = 2
[6] = Homo sapiens, MDA-MB-231, 192 h, MDA-MB-231, used singly, average, read-out: IC50_Avg
[7] = Homo sapiens, MDA-MB-231, 192 h, MDA-MB-231, used singly, run N=1, read-out: IC50_N = 1
[8] = Homo sapiens, MDA-MB-231, 192 h, MDA-MB-231, used singly, run N=2, read-out: IC50_N = 2
[9] = MDA-MB-231, combined with 1uM TMZ
[10] = Homo sapiens, MDA-MB-436, 192 h, MDA-MB-436, combined with 25uM TMZ, average, read-out: IC50_Avg
[11] = Homo sapiens, MDA-MB-436, 192 h, MDA-MB-436, combined with 25uM TMZ, run N=1, read-out: IC50_N = 1
[12] = Homo sapiens, MDA-MB-436, 192 h, MDA-MB-436, combined with 25uM TMZ, run N=2, read-out: IC50_N= 2
[13] = Homo sapiens, MDA-MB-436, 192 h, MDA-MB-436, used singly, average, read-out: IC50_Avg
[14] = Homo sapiens, MDA-MB-436, 192 h, MDA-MB-436, used singly, run N=1, read-out: IC50_N = 1
[15] = Homo sapiens, MDA-MB-436, 192 h, MDA-MB-436, used singly, run N=2, read-out: IC50_N= 2
[16] = MDA-MB-436, combined with 25uM TMZ
[17] = Strong illumination (sealed), 5Klux, day 10

SMILES: CC(C)N1CCC(C)(c2cnn3c2[nH]c2cc(F)cc(C(N)=O)c23)CC1 [Compound 1, 6-fluoro-3-(1-isopropyl-4-methylpiperidin-4-yl)-4H-benzo[4,5]imidazo[1,2-b]pyrazol-8-carboxamide]
- pIC50 (MDA-MB-231 cells; [3]): 5.31
- pIC50 (MDA-MB-231 cells; [4]): 5.40
- pIC50 (MDA-MB-231 cells; [5]): 5.24
- pIC50 (MDA-MB-231 cells; [6]): 5.23
- pIC50 (MDA-MB-231 cells; [7]): 5.21
- pIC50 (MDA-MB-231 cells; [8]): 5.26
- PF50 (MDA-MB-231 cells; [9]): 1.20
- inhibitory effect on cell line (MDA-MB-436 cells; BRAC mutant MDA-MB-436 cell line): strong inhibitory effect
- pIC50 (MDA-MB-436 cells; [10]): 8.15
- pIC50 (MDA-MB-436 cells; [11]): 8.05
- pIC50 (MDA-MB-436 cells; [12]): 8.30
- pIC50 (MDA-MB-436 cells; [13]): 7.15
- pIC50 (MDA-MB-436 cells; [14]): 7.05
- pIC50 (MDA-MB-436 cells; [15]): 7.28
- PF50 (MDA-MB-436 cells; [16]): 9.84
- synergistic effect (MDA-MB-436 cells; combined with TMZ): good synergistic effect

SMILES: Cn1nnc2c(C(N)=O)ncn2c1=O [TMZ, temozolomide]
- pIC50 (MDA-MB-231 cells; [6]): 5.38
- pIC50 (MDA-MB-231 cells; [7]): 5.34
- pIC50 (MDA-MB-231 cells; [8]): 5.43
- pIC50 (MDA-MB-231 cells; MDA-MB-231, used singly, average, read-out: IC50_Avg): 5.47
- pIC50 (MDA-MB-231 cells; MDA-MB-231, used singly, run N=1, read-out: IC50_N = 1): 5.48
- pIC50 (MDA-MB-231 cells; MDA-MB-231, used singly, run N=2, read-out: IC50_N = 2): 5.45
- pIC50 (MDA-MB-436 cells; [13]): 3.95
- pIC50 (MDA-MB-436 cells; [14]): 4.10
- pIC50 (MDA-MB-436 cells; MDA-MB-436, used singly, average, read-out: IC50_Avg): 3.97
- pIC50 (MDA-MB-436 cells; MDA-MB-436, used singly, run N=1, read-out: IC50_N = 1): 3.82

SMILES: C[C@]1(c2nc3c(C(N)=O)cccc3[nH]2)CCCN1 [ABT-888, Veliparib]
- pIC50 (MDA-MB-231 cells; [3]): 4.51
- pIC50 (MDA-MB-231 cells; [4]): 4.59
- pIC50 (MDA-MB-231 cells; [5]): 4.44
- pIC50 (MDA-MB-231 cells; [6]): 4.39
- pIC50 (MDA-MB-231 cells; [7]): 4.36
- pIC50 (MDA-MB-231 cells; [8]): 4.43
- PF50 (MDA-MB-231 cells; [9]): 1.32
- pIC50 (MDA-MB-436 cells; [10]): 7.74
- pIC50 (MDA-MB-436 cells; [11]): 7.59
- pIC50 (MDA-MB-436 cells; [12]): 8.00
- pIC50 (MDA-MB-436 cells; [13]): 6.52
- pIC50 (MDA-MB-436 cells; [14]): 6.35
- pIC50 (MDA-MB-436 cells; [15]): 6.78
- PF50 (MDA-MB-436 cells; [16]): 17.14

SMILES: CC(C)N1CCC(C)(c2cnn3c2[nH]c2cc(F)cc(C(N)=O)c23)CC1.O=C(O)/C=C\C(=O)O [Crystal type A, 6-fluoro-3-(1-isopropyl-4-methylpiperidin-4-yl)-4H-benzo[4,5]imidazo[1,2-b]pyrazol-8-formamide.maleate monohydrate]
- Appearance (3 days) ([1]; Acetone, 25° C.): Suspension
- Results (crystalline state by XRPD) ([1]; Acetone, stirred at 25° C.): Crystal type A
- Appearance (3 days) ([1]; Acetone:water = 1:2, 25° C.): Suspension
- Results (crystalline state by XRPD) ([1]; Acetone:water = 1:2, stirred at 25° C.): Crystal type A
- Appearance (3 days) ([1]; Acetonitrile:water = 1:1, 25° C.): Suspension
- Results (crystalline state by XRPD) ([1]; Acetonitrile:water = 1:1, stirred at 25° C.): Crystal type A
- Appearance (3 days) ([1]; Ethanol, 25° C.): Suspension
- Results (crystalline state by XRPD) ([1]; Ethanol, stirred at 25° C.): Crystal type A
- Appearance (3 days) ([1]; Ethanol:water = 3:1, 25° C.): Suspension
- Results (crystalline state by XRPD) ([1]; Ethanol:water = 3:1, stirred at 25° C.): Crystal type A
- Appearance (3 days) ([1]; Ethyl acetate, 25° C.): Suspension
- Results (crystalline state by XRPD) ([1]; Ethyl acetate, stirred at 25° C.): Crystal type A
- Appearance (3 days) ([1]; Isopropanol, 25° C.): Suspension
- Results (crystalline state by XRPD) ([1]; Isopropanol, stirred at 25° C.): Crystal type A
- Appearance (3 days) ([1]; Isopropanol:water = 1:1, 25° C.): Suspension
- Results (crystalline state by XRPD) ([1]; Isopropanol:water = 1:1, stirred at 25° C.): Crystal type A
- Appearance (3 days) ([1]; Methanol, 25° C.): Suspension
- Results (crystalline state by XRPD) ([1]; Methanol, stirred at 25° C.): Crystal type A
- Appearance (3 days) ([1]; Methanol:water = 3:1, 25° C.): Suspension
- Results (crystalline state by XRPD) ([1]; Methanol:water = 3:1, stirred at 25° C.): Crystal type A
- Appearance ([2]; 60° C. (open), day 10): White powder
- Content (%) ([2]; 60° C. (open), day 10): 98.5%
- Total impurities (%) ([2]; 60° C. (open), day 10): 0.11%
- Appearance ([2]; 92.5% RH (open), day 10): White powder
- Content (%) ([2]; 92.5% RH (open), day 10): 99.5%
- Total impurities (%) ([2]; 92.5% RH (open), day 10): 0.10%
- Appearance [2, 17]: White powder
- Content (%) [2, 17]: 99.4%
- Total impurities (%) [2, 17]: 0.11%
- Appearance ([2]; initial, day 0): White powder
- Content (%) ([2]; initial, day 0): 98.9%
- Total impurities (%) ([2]; initial, day 0): 0.10%

Source: patent US10941150B2, “Salt type and crystal type of 4h-pyrazolo [1, 5-alpha] benzimidazole compound and preparation method and intermediate thereof” (HUBEI BIO-PHARMACEUTICAL INDUSTRIAL TECHNOLOGICAL INSTITUTE …, priority 2015, dated 2021)
